≈ marks a conversion by molar mass, not a printed value. Where two headings read alike, the source gives them in different places.
Columns and labels:
staphylococci = assay: Minimum inhibitory concentration, microdilution broth method, staphylococci; format: cell-based; conditions: Mueller-Hinton broth, 18-22 hours at 35° C.; for MIC: Staphylococcus aureus
Experimental: (§1) Evaluation of the Minimum Inhibitory Concentration of Test Compounds Against A Variety of Bacterial Strains
(§2) In this evaluation the minimal inhibitory concentration (MIC) of test compounds against Gram positive and Gram negative bacteria is performed using the microdilution broth method as recommended by the National Committee for Clinical Laboratory Standards (Approved Standards M7-A5 2000). Mueller-Hinton broth is used for the enterobacteriaceae, staphylococci and enterococci. Streptococci are also tested in Mueller-Hinton broth supplemented with 5% horse blood (LHB). Test organisms include recent clinical isolates that are resistant to methicillin, penicillin and/or vancomycin. […].

[1] = target: E. coli Uridine-diphosphate-N-acetvimuramoyl: L-alanine lipase, MurC (Escherichia coli, UniProt P17952); assay: Inhibitory activity against MurC (E. coli); format: biochemical; conditions: (E) E. coli enzyme; for IC50: read-out: MurC IC50 (converted)
Experimental: S. aureus and E. coli Uridine-diphosphate-N-acetvimuramoyl: L-alanine lipase, MurC
The buffer is prepared from aqueous reagents with the following final concentrations: 83 mM Tris/HCl (pH 8.0), 50 mM MgC12, and 2 mM ATP.
(§3) Preparation of Enzyme Solution:
A 1 mg/mL stock solution of MurC is prepared in a buffer consisting of 20 mM Tris/HCl (pH 8.5) with 2.5 μM BME. The stock solution is further diluted with the buffer to give a final enzyme concentration of 100 μg/mL for the E. coli stock solution and 70 μg/mL for the S. aureus stock solution.
(§4) Preparation of Test Compound Solutions:
(§5) All test solutions are prepared in DMSO as 10 mg/mL, then diluted with 50 mM Tris/HCl (pH 8.5) to 100 μg/mL.
(§6) Preparation of Stop Solution:
The stop solution is prepared by stirring 1 part 4.2% ammonium molydbate in 4N HCl with 2 parts 0.045% malachite green for 30 min.
In this evaluation, the inhibitory activity of a test compound against MurC, the enzyme which catalyzes the third step of bacterial cell wall bioxynthesis is determined. Experiments are performed by adding 2.5 μl buffer, 2.5 μl 0.5M NH4SO2, 5 μl 2 μM L-Ala, 5 μl enzyme solution and 6.5 μl test compound solution to each well in a 96-well microplate. After a pre-incubation period of 10 mins. at 23° C., 3.75 μl of a 0.75 μM solution of UDP-MurNac is added to each well. Following an incubation period of 10 mins. at 37° C., 210 μl stop solution and 50 μl of a 34% w/v sodium citrate solution are added and color is allowed to develop for 10 mins. at 23° C. (Lanzetta et al., Analytical Biochemistry, 1979, 95) Optical density readings are taken at 660 nm using a Molecular Devices Spectra Max 250 with Soft Max software. Controls are performed using the same procedure and omitting the addition of UDP-MurNac.
Using these values the IC50 is determined by linear regression analysis.

enterococci = assay: Minimum inhibitory concentration, microdilution broth method, enterococci; format: cell-based; conditions: Mueller-Hinton broth, 18-22 hours at 35° C.; for MIC: Enterococcus faecalis
Experimental: as §1, §2

Streptococci = assay: Minimum inhibitory concentration, microdilution broth method, streptococci; format: cell-based; conditions: Mueller-Hinton broth with 5% horse blood, 18-22 hours at 35° C.; for MIC: S. pneumo GC 1894
Experimental: as §1, §2

[2] = target: T1, S. aureus Uridine-diphosphate-N-acetylmuramoyl-L-alanine: D-glutamate liease, MurD (Staphylococcus aureus, UniProt Q2FZ92); assay: biochemical; conditions: (S) S. aureus enzyme
T1 sequence (Q2FZ92 1-449): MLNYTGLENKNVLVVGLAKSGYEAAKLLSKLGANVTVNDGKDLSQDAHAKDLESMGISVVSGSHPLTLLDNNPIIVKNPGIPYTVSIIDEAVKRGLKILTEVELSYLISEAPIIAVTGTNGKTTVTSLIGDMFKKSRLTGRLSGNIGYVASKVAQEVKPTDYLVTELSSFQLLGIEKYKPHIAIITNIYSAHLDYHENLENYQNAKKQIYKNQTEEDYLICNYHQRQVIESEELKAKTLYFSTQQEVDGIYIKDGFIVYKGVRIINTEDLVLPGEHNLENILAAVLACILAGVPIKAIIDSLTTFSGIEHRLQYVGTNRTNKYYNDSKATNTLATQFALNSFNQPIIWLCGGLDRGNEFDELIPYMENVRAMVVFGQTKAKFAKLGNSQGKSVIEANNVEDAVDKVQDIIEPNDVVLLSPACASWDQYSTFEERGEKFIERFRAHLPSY
Experimental: (§7) S. aureus and E. coli Uridine-diphosphate-N-acetylmuramoyl-L-alanine: D-glutamate liease, MurD
as §3, §4, §5, §6
(§8) In this evaluation, the inhibitory activity of a test compound against MurD, the enzyme which catalyzes the fourth step of bacterial cell wall biosynthesis is determined.

[3] = target: E. coli Enopyruvyl-UPD-N-acetylglucosamine reductase, Mur B (Escherichia coli, UniProt P08373); assay: biochemical; conditions: (E) E. coli enzyme; for IC50: read-out: MurB IC50 (converted)
Experimental: S. aureus and E. coli Enopyruvyl-UPD-N-acetylglucosamine reductase, Mur B
Preparation of Tris/BME buffer:
Dilute 17.5 uL of aqueous 5 mM BME (2-mercaptoethanol) to 50 mL with 50 mM Tris/HCl (pH 8.0).
as §3
Dilute aqueous MurB stock solution (0.94 mg/mL) with 200 parts 50 mM Tris/2-BME buffer.
Synthesis of Substrate for MurB (MurA Product EP-UDP-GluNAc):
A mixture of 13 mg UDP-N-acetylglucosamine and 5.5 mg phosphoenolpyruvate are dissolved in 10 mL Tris/BME buffer forming 2 mM concentrations of each reagent in solution.
Preparation of Assay Buffer:
The assay buffer is prepared in water from reagents with the following final concentrations: 100 mM Tris/HCl (pH 8.0), 200 μM NADPH, 100 μM MurB substrate, 10 μM 2-mercaptoethanol, and 10 μM KCl.
Experiments are performed by adding 20 μL of a solution of test compound in a mixture of dimethylsulfoxide and water and 30 μL of enzyme solution to a well. After a pre-incubation period of 20 mins. at 23° C., 50 μL of Tris/BME buffer and 100 μL of assay buffer are added. […] Controls are performed using the same procedure and employing 20 μL of a blank dimethylsulfonide and solvent mixture in place of the test compound solution.
Using these values, the IC50 for each test compound is determined by linear regression analysis.

[4] = target: E. coli UDP-N-acetylglucosamine enolpyruvoyl transferase, MurA (Escherichia coli, UniProt P0A749); assay: biochemical; conditions: (E) E. coli enzyme
Experimental: Evaluation of the Inhibitory Activity of Test Compounds Against Enzymes which Catalyze Bacterial Cell Wall Biosynthesis
S. aureus and E. coli UDP-N-acetylglucosamine enolpyruvoyl transferase, MurA
as §3
The enzyme solution is prepared by admixing the following: 50 mM Tris/HCl pH 8.0, […] 1 M Tris, 5 mM DTT, […] 1 M DTT, 20% Glycerol 4 ml 50% Glycerol, add water to 10 ml.
as §6
A procedure similar to that described by C. […] Experiments are performed by adding a solution of test compound (in a mixture of dimethylsulfoxide and water) and an enzyme solution to a well. After a pre-incubation period of 10 mintues at 37° C., Tris/BME buffer and assay buffer are added. A start point optical density (OD0) reading is taken at 340 nm immediately following the addition of assay buffer. After incubation for 1 hr at 37° C., the stop solution is added and the color is allowed to develop for 30 minutes.

[5] = target: E. coli Uridine-diphosphate-N-acetylmuramoyl-L-alanine: D-glutamate liease, MurD (Escherichia coli, UniProt P14900); assay: biochemical; conditions: (E) E. coli enzyme
Experimental: as §7
The buffer is prepared from aqueous reagents with the following final concentrations: 83 mM Tris/HCl (pH 8.0), 50 mM MgCl2, and 2 mM ATP.
as §3, §4, §5, §6, §8

[6] = S. aureus GC 1131, read-out: MIC S. aureus GC 1131
[7] = S. aureus GC 4543, read-out: MIC S. aureus GC 4543
[8] = E. faecalis GC 2242, read-out: MIC E. faecalis GC 2242
[9] = E. faecalis GC 4555, read-out: MIC E. faecalis GC 4555

Sequence of E. coli Enopyruvyl-UPD-N-acetylglucosamine reductase, Mur B (P08373 whole entry): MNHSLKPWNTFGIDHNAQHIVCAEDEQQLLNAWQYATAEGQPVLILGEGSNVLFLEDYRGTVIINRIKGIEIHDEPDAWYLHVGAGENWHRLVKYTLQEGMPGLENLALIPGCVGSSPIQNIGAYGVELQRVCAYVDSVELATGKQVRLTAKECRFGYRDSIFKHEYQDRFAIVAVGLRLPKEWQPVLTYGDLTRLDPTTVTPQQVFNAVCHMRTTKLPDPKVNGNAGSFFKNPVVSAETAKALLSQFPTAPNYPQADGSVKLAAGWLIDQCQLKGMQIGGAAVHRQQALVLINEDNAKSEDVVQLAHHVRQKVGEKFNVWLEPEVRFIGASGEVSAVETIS
Sequence of E. coli Uridine-diphosphate-N-acetylmuramoyl-L-alanine: D-glutamate liease, MurD (P14900 whole entry): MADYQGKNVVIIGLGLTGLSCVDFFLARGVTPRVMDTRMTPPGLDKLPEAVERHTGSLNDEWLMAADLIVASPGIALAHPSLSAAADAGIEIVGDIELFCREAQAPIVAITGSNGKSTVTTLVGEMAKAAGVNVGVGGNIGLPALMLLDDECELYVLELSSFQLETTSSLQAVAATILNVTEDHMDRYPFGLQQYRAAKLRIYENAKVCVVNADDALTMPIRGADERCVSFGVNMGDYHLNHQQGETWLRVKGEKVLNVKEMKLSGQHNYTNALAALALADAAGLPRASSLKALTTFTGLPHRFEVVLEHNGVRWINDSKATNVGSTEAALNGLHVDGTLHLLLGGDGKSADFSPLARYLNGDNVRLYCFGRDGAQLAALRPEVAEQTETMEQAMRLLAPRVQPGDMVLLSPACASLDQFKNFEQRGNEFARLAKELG
Sequence of E. coli Uridine-diphosphate-N-acetvimuramoyl: L-alanine lipase, MurC (P17952 whole entry): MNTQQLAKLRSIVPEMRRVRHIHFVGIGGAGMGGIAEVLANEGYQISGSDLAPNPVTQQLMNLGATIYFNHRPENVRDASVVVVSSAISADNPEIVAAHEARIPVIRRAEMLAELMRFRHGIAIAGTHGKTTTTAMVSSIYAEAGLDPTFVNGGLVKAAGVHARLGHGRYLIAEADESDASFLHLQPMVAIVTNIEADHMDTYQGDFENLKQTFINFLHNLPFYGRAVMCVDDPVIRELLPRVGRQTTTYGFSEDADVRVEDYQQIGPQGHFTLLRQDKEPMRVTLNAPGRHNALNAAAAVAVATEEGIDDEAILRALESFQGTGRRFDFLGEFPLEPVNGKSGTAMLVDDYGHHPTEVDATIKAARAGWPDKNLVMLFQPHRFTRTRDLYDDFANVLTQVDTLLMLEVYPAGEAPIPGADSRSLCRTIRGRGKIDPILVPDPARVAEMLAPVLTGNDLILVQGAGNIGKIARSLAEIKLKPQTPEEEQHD
Sequence of E. coli UDP-N-acetylglucosamine enolpyruvoyl transferase, MurA (P0A749 whole entry): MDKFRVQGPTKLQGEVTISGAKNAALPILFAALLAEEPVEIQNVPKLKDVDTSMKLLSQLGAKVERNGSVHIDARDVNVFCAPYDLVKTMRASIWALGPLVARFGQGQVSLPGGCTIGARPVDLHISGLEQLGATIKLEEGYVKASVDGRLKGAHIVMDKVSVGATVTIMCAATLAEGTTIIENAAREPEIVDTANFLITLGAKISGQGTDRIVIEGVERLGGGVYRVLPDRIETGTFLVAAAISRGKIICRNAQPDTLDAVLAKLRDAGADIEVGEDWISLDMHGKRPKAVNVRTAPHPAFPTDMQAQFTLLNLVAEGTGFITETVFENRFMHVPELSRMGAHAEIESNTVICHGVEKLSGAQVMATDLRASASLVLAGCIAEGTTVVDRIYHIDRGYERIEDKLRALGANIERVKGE

| SMILES | MIC (staphylococci; [6]) | MIC (staphylococci; [7]) | MurC IC50 [1] | MIC (enterococci; [8]) | MIC (enterococci; [9]) | MIC (Streptococci) | IC50 [2] | MurB IC50 [3] | IC50 [4] | IC50 [1] | IC50 [5] | IC50 [3] | MurA IC50 [4] | MIC S. aureus GC 1131 (staphylococci; S. aureus GC 1131) | MIC S. aureus GC 4543 (staphylococci; S. aureus GC 4543) | MIC E. faecalis GC 2242 (enterococci; E. faecalis GC 2242) | MIC E. faecalis GC 4555 (enterococci; E. faecalis GC 4555) | MIC S. pneumo GC 1894 (Streptococci) |
| --- | --- | --- | --- | --- | --- | --- | --- | --- | --- | --- | --- | --- | --- | --- | --- | --- | --- | --- |
| O=C1O/C(=C\c2ccc(-c3ccccc3)cc2)C(O)=C1c1ccc2ccccc2c1 [Example 45] | 16 µg/mL (≈ 41 µM) | 4 µg/mL (≈ 10.2 µM) | 10 (E) μg/mL | 4 µg/mL (≈ 10.2 µM) | 8 µg/mL (≈ 20.5 µM) | 2 µg/mL (≈ 5.12 µM) | > 64 µM | 2 (E) μg/mL | – | – | – | – | – | – | – | – | – | – |
| CCOc1ccc(-c2ccc(C3=C(O)/C(=C/c4cc(C(F)(F)F)ccc4Cl)OC3=O)cc2)cc1 [Example 129] | 2 µg/mL (≈ 4.11 µM) | 2 µg/mL (≈ 4.11 µM) | – | 2 µg/mL (≈ 4.11 µM) | 4 µg/mL (≈ 8.22 µM) | 0.25 µg/mL (≈ 0.513 µM) | – | – | 4.11 µM | 14.4 µM | 14.4 µM | 4.11 µM | – | – | – | – | – | – |
| O=C1O/C(=C\c2cc(F)cc(C(F)(F)F)c2)C(O)=C1c1cccc(-c2ccccc2)c1 [Example 109] | 2 µg/mL (≈ 4.69 µM) | 2 µg/mL (≈ 4.69 µM) | – | 1 µg/mL (≈ 2.35 µM) | 4 µg/mL (≈ 9.38 µM) | 0.25 µg/mL (≈ 0.586 µM) | – | – | – | 23.5 µM | > 58.6 µM | 9.38 µM | – | – | – | – | – | – |
| CCOc1ccc(-c2ccc(C3=C(O)/C(=C/c4cc(C(F)(F)F)ccc4F)OC3=O)cc2)cc1 [Example 122] | 16 µg/mL (≈ 34 µM) | 16 µg/mL (≈ 34 µM) | – | 8 µg/mL (≈ 17 µM) | 32 µg/mL (≈ 68 µM) | 1 µg/mL (≈ 2.13 µM) | – | – | 34 µM | > 53.1 µM | > 53.1 µM | 29.8 µM | – | – | – | – | – | – |
| O=C1O/C(=C\c2cccc(C(F)(F)F)c2)C(O)=C1c1ccc(-c2ccccc2)cc1 [Example 130] | 4 µg/mL (≈ 9.79 µM) | 4 µg/mL (≈ 9.79 µM) | 8 (E) μg/mL | 8 µg/mL (≈ 19.6 µM) | 4 µg/mL (≈ 9.79 µM) | 0.5 µg/mL (≈ 1.22 µM) | – | – | – | – | – | 22 µM | 17 (E) μg/mL | – | – | – | – | – |
| O=C1O/C(=C\c2cc(F)cc(C(F)(F)F)c2)C(O)=C1c1cccc(-c2ccccc2)c1 [Example 112] | – | – | – | – | – | – | – | – | – | 23.5 µM | > 58.6 µM | 11.7 µM | – | 2 µg/mL (≈ 4.69 µM) | 4 µg/mL (≈ 9.38 µM) | 2 µg/mL (≈ 4.69 µM) | 8 µg/mL (≈ 18.8 µM) | 0.25 µg/mL (≈ 0.586 µM) |
| O=C1O/C(=C\c2ccc(-c3ccccc3)cc2)C(O)=C1c1cccc2ccccc12 [Example 50] | 8 µg/mL (≈ 20.5 µM) | 4 µg/mL (≈ 10.2 µM) | 9 (E) μg/mL | 8 µg/mL (≈ 20.5 µM) | 32 µg/mL (≈ 82 µM) | 4 µg/mL (≈ 10.2 µM) | – | – | – | – | – | – | 16 (E) μg/mL | – | – | – | – | – |

From patent US7495027B2, “3-aryl-4-hydroxyfuranone compounds and the human and animal health use thereof” (Wyeth, priority 2003, dated 2009)
